Source: patent US20260256816A1, “PHARMACEUTICAL COMPOSITION FOR PREVENTING OR TREATING BRAIN TUMOR” (ASTRION INC., priority 2023, published 2026)

Key:
[1] = test system: U87-MG cells; experiment: Matrigel Transwell invasion assay (metastasis inhibition); format: cell-based, human; conditions: for degree of penetration into Matrigel compared to the untreated control: 24 hours
Procedure: A human glioblastoma cell line U87-MG was seeded at a density of 8×10^4 cells/well on Matrigel-coated filters (Transwell invasion chambers, Corning), and the cells were then treated with the compound (AON-MG23-01 or AON-MG23-02; each at 0, 1, 2, and 4 μM) of the present invention, and cultured at 37° C. in a CO2 incubator for 24 hours. After the culturing was completed, the cells were fixed and stained using the Diff-Quick Stain kit (Sysmex, Kobe, Japan). Images of the stained cells were taken under a microscope, the cells were counted using Image J software, and statistical analysis was then performed.
A human glioblastoma cell line U87-MG was seeded at a density of 6×10^4 cells/well on the top of a Matrigel-coated filter (Transwell invasion chambers, Corning), treated with 4 μM of the compound AON-MG23-02 of the present invention, 4 μM of the EGFR inhibitor Osimertinib, 100 μM of the ANO1 inhibitor CaCCinh-A01, or a combination of 4 μM of Osimertinib and 100 μM of CaCCinh-A01, and then cultured at 37° C. in a CO2 incubator for 16 hours. After the culturing was completed, the cells were fixed and stained using a Diff-Quick stain kit (Sysmex, Kobe, Japan). Images of the stained cells were taken under a microscope, the cells were counted using Image J software, and statistical analysis was then performed.
A human glioblastoma cell line U87-MG was seeded at a density of 8×10^4 cells/well on the top of a Matrigel-coated filter (Transwell invasion chambers, Corning), and then treated with 0, 8, 16, and 32 μM of each of the compound derivatives AON-MG23-05, AON-MG23-06, AON-MG23-07, and AON-MG23-08 of the present invention, and cultured at 37° C. in a CO2 incubator for 24 hours. After the culturing was completed, the cells were fixed and stained using a Diff-Quick stain kit (Sysmex, Kobe, Japan). Images of the stained cells were taken under a microscope, the cells were counted using Image J software, and statistical analysis was then performed.

[2] = test system: U87-MG cells; experiment: Cell migration assay (SPLScar Block); format: cell-based; conditions: Homo sapiens, U-87 MG, 24 hours, FIG. 3, read-out: inhibition of cell migration compared to the untreated control
Procedure: Human glioblastoma cell line U87-MG cells were seeded at a density of 8×10^4 cells/well on a SPLScar Block (SPL) plate and cultured for 24 hours. After 24 hours, the block was removed, and the cells were treated with the compound AON-MG23-01 or AON-MG23-02 of the present invention, and cultured at 37° C. in a CO2 incubator for 24 hours. The compound of the present invention was treated at concentrations of 0, 1, 2, and 4 μM. Images were taken before and after culture, and the distance of cell migration was measured using Image J software. Based on the results, whether the cell migration was inhibited was analyzed.

[3] = test system: U87-MG cells; experiment: CCK assay, cell proliferation of human glioblastoma cells; format: cell-based; conditions: 0, 1, 2, 4 μM, 48 hours, FIG. 2
Procedure: Human glioblastoma cell line U87-MG cells were seeded at a density of 1×10^4 cells/well in a 96-well plate and cultured for 24 hours. Thereafter, the cells were treated with DMSO as a control and the compound AON-MG23-01 or AON-MG23-02 of the present invention, and then cultured for 48 hours. The compound of the present invention was treated at various concentrations of 0, 1, 2, and 4 μM. 10 μL of a CCK reagent was added and reacted for an hour, and the absorbance was then measured at 450 nm.

[4] = test system: ANO1; experiment: Western blot of ANO1 protein expression in glioblastoma cell line; format: cell-based, human; conditions: U87-MG, 48 hours; for expression of ANO1 protein compared to the untreated control: 0, 8, 16, 32 μM, FIGS. 9A to 9D
Procedure: (§1) It was determined whether the compound of the present invention affects the expression of ANO1 and EGFR proteins in a glioblastoma cell line. The human glioblastoma cell line U87-MG was seeded at a density of 1×10^6 cells in a 60 mm dish, and cultured for 24 hours, and the cells were then treated with the compound (AON-MG23-01 or AON-MG23-02; each at 0, 1, 2, and 4 μM) of the present invention, and cultured for 48 hours. The cultured cells were harvested and the harvested cells were lysed for Western blotting. An anti-ANO1 antibody (Abcam, ab53212), an anti-pEGFR antibody (Cell Signaling, #4407S), an anti-EGFR antibody (Cell Signaling, #4267S), and an anti-α-tubulin antibody (Santacruz, #SC-5286) were used as the antibodies for Western blotting. Protein concentration was quantified using the BSA method (a protein quantitation assay, a bovine serum albumin assay) (Pierce, Cat. 23225). After the cells were lysed, an equal amount (10 μg) of the proteins obtained from the lysed cells was subjected to 10% SDS-PAGE to separate the proteins depending on their molecular weights, transferred to a PVDF membrane (Bio-Rad), and then treated with a blocking buffer (5% skim milk in a Tris-buffered saline (TBS) buffer containing 0.1% Tween 20; TBS-T) at room temperature for an hour. Thereafter, the PVDF membrane was treated with the primary antibody, and reacted at 4° C. for 16 hours. […] The amount of each protein was quantified and analyzed using Image J software.
(§2) The inhibitory effects of the compound AON-MG23-02 of the present invention, the EGFR inhibitor Osimertinib, and the ANO1 inhibitor CaCCinh-A01 on the expression of ANO1, EGFR, and pEGFR proteins in a glioblastoma cell line were compared. […] Protein concentration was quantified using the BSA method (a protein quantitation assay, a bovine serum albumin assay) (Pierce, Cat. 23225). […] The amount of each protein was quantified and analyzed using Image J software. […]

[5] = test system: pEGFR; experiment: Western blot of pEGFR protein expression in glioblastoma cell line; format: cell-based, human; conditions: U87-MG; 4 μM; 48 hours; vs 2 μM Osimertinib, 100 μM CaCCinh-A01, combination; FIGS. 8A, 8B
Procedure: The inhibitory effects of the compound AON-MG23-02 of the present invention, the EGFR inhibitor Osimertinib, and the ANO1 inhibitor CaCCinh-A01 on the expression of ANO1, EGFR, and pEGFR proteins in a glioblastoma cell line were compared. A human glioblastoma cell line U87-MG was seeded at a density of 100×10^4 cells/dish in a 60 mm dish, and cultured for 24 hours. Thereafter, the cells were treated with 4 μM of AON-MG23-02, 2 μM of the EGFR inhibitor Osimertinib, 100 μM of the ANO1 inhibitor CaCCinh-A01, or a combination of 2 μM of Osimertinib and 100 μM of CaCCinh-A01, and cultured for 48 hours. The cultured cells were harvested and the harvested cells were lysed for Western blotting. An anti-ANO1 antibody (Abcam, ab53212), an anti-pEGFR antibody (Cell Signaling, #4407S), an anti-EGFR antibody (Cell Signaling, #4267S), and an anti-ACTIN antibody (sigma, #A2066) were used as antibodies for Western blotting. Protein concentration was quantified using the BSA method (a protein quantitation assay, a bovine serum albumin assay) (Pierce, Cat. 23225). […] The amount of each protein was quantified and analyzed using Image J software.

[6] = test system: EGFR; experiment: Western blot of EGFR protein expression in glioblastoma cell line; format: cell-based, human; conditions: U87-MG, 48 hours; for expression of EGFR protein compared to the untreated control: 0, 8, 16, 32 μM, FIGS. 9A to 9D
Procedure: as §1, §2

[7] = 4 μM, vs 2 μM Osimertinib, 100 μM CaCCinh-A01, combination, FIGS. 8A, 8B
[8] = 0, 8, 16, 32 μM, FIGS. 10A, 10B

`COc1cc(N2CCC(N3CCN(C)CC3)CC2)ccc1Nc1ncc(Cl)c(Nc2ccccc2N(C2CC2)S(C)(=O)=O)n1` [AON-MG23-01, N-(2-((5-chloro-2-((2-methoxy-4-(4-(4-methylpiperazin-1-yl)piperidin-1-yl)phenyl)amino)pyrimidin-4-yl)amino)phenyl)-N-cyclopropylmethanesulfonamide] was tested. Which “degree of penetration into Matrigel compared to the untreated control” value (shortened to “degree … compared to the untreated control”) ([1]; 0, 1, 2, 4 μM, FIG. 4) did it give?
Its value is “reduced degree of penetration into Matrigel”.

And the inhibition at 4 µM [2]?
Its inhibition at 4 µM is over 65%.

And the “proliferation of U87-MG cells (CCK assay)” value [3]?
The value was “inhibits the proliferation of U87-MG cells”.

What does the source list for `COc1cc(N2CCC(N(C)C)CC2)ccc1Nc1ncc(Cl)c(Nc2ccccc2N(C2CC2)S(C)(=O)=O)n1` [AON-MG23-02, N-(2-((5-chloro-2-((4-(4-(dimethylamino)piperidin-1-yl)-2-methoxyphenyl)amino)pyrimidin-4-yl)amino)phenyl)-N-cyclopropylmethanesulfonamide]?
degree of penetration into Matrigel compared to the untreated control ([1]; 0, 1, 2, 4 μM, FIG. 4): reduced degree of penetration into Matrigel; degree of penetration into Matrigel compared to untreated control, EGFR inhibitor-treated group and ANO1 inhibitor-treated group ([1]; 4 μM, 16 hours, vs 4 μM Osimertinib, 100 μM CaCCinh-A01, FIGS. 7A, 7B): reduced degree of penetration into Matrigel; inhibition at 4 µM [2]: > 65%; expression of ANO1 protein compared to untreated control, EGFR inhibitor, ANO1 inhibitor and combination groups [4, 7]: reduces the expression; proliferation of U87-MG cells (CCK assay) [3]: inhibits the proliferation of U87-MG cells; expression of pEGFR protein compared to untreated control, EGFR inhibitor, ANO1 inhibitor and combination groups [5]: reduces the expression; expression of EGFR protein compared to untreated control, EGFR inhibitor, ANO1 inhibitor and combination groups [6, 7]: reduces the expression

For `O=C1c2ccccc2CN1Cc1ccc(CCN(CCO)Cc2ccc3ccccc3c2)cc1` [AON-MG23-05, 2-(4-(2-((2-hydroxyethyl)(naphthalen-2-ylmethyl)amino)ethyl)benzyl)isoindolin-1-one], which “degree … compared to the untreated control” value [1, 8] is on record?
Its value is “reduced degree of penetration into Matrigel”.

And the “expression of ANO1 protein compared to the untreated control” value [4]?
Its value is “reduced expression”.

And the “expression of EGFR protein compared to the untreated control” value [6]?
Its value is “reduced expression”.

`CCN(Cc1ccc2ccccc2c1)CC(O)c1ccc(CN2Cc3ccccc3C2=O)cc1` (stereo not drawn) [AON-MG23-06, 2-(4-(2-(ethyl(naphthalen-2-ylmethyl)amino)-1-hydroxyethyl)benzyl)isoindolin-1-one] was tested. Which “degree … compared to the untreated control” value [1, 8] did it give?
Its value is “reduced degree of penetration into Matrigel”.

With `O=C1c2ccccc2CN1Cc1ccc(CCP(=O)(Cc2ccc3ccccc3c2)Cc2ccc3ccccc3c2)cc1` [AON-MG23-07, 2-(4-(2-(bis(naphthalen-2-ylmethyl)phosphoryl)ethyl)benzyl)isoindolin-1-one] as the molecule, how does the “degree … compared to the untreated control” value [1, 8] read?
The value was “reduced degree of penetration into Matrigel”.

Which results are given for `NC(=O)N(CCc1ccc(CN2Cc3ccccc3C2=O)cc1)Cc1ccc2ccccc2c1` [AON-MG23-08, 1-(naphthalen-2-ylmethyl)-1-(4-((1-oxoisoindolin-2-yl)methyl)phenethyl)urea]?
degree of penetration into Matrigel compared to the untreated control [1, 8]: reduced degree of penetration into Matrigel; expression of ANO1 protein compared to the untreated control [4]: reduced expression; expression of EGFR protein compared to the untreated control [6]: reduced expression
